Test results as given in ChEMBL document CHEMBL1201862, “PubChem BioAssay data set” (2004).
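Where inhibition never reached the appropriate level, the endpoint shown equals the highest concentration tested. Otherwise, values were interpolated linearly from a five-concentration, 48-hour dose response in 96-well plates. Abbreviation: GI50, concentration required for 50% inhibition of growth.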 Calls of active or inactive are those of the source. No stated cut-off is given here; in the data, active = GI50 up to about 1.1 µM and inactive = higher.

Assays:
Experiment in all cases: growth of human tumour cells (NCI), 48 h
Malme-3M = system: Malme-3M
SK-OV-3 = system: SK-OV-3
OVCAR-4 = system: OVCAR-4
SK-MEL-28 = system: SK-MEL-28
HCC 2998 = system: HCC 2998
DMS-114 = system: DMS-114
U-251 = system: U-251
COLO 205 = system: COLO 205
NCI-H23 = system: NCI-H23
SR = system: SR
SF-268 = system: SF-268
XF498 = system: XF498
SK-MEL-5 = system: SK-MEL-5
SNB-75 = system: SNB-75
SNB-78 = system: SNB-78
UO-31 = system: UO-31
HOP-62 = system: HOP-62
EKVX = system: EKVX
HCT-116 = system: HCT-116
M14 = system: M14
SK-MEL-2 = system: SK-MEL-2
M19-MEL = system: M19-MEL
HL-60 = system: HL-60
IGROV-1 = system: IGROV-1
NCI-H226 = system: NCI-H226
ACHN = system: ACHN
HOP-18 = system: HOP-18
HOP-92 = system: HOP-92
OVCAR-5 = system: OVCAR-5
HCT-15 = system: HCT-15
CAKI-1 = system: CAKI-1
RPMI-8226 = system: RPMI-8226
UACC-257 = system: UACC-257
KM-20L2 = system: KM-20L2
OVCAR-3 = system: OVCAR-3
A549 = system: A549
HT-29 = system: HT-29
TK-10 = system: TK-10
MOLT-4 = system: MOLT-4
SN12C = system: SN12C
OVCAR-8 = system: OVCAR-8
CCRF-CEM = system: CCRF-CEM
K562 = system: K562
SF-295 = system: SF-295
A498 = system: A498
UACC-62 = system: UACC-62
DLD-1 = system: DLD-1
KM12 = system: KM12
786-0 = system: 786-0
SNB-19 = system: SNB-19
DMS-273 = system: DMS-273
LOX IMVI = system: LOX IMVI
NCI-H522 = system: NCI-H522
SW-620 = system: SW-620
SF-539 = system: SF-539
NCI-H460 = system: NCI-H460
MCF7 = system: MCF7
NCI/ADR-RES = system: NCI/ADR-RES

Compound: C=CCSc1ncnc2c1ncn2C1OC(CO)C(O)C1O (configuration not stated)
- GI50 (Malme-3M): > 100 µM (inactive)
- GI50 (SK-OV-3): 30.5 µM (inactive)
- GI50 (OVCAR-4): > 100 µM (inactive)
- GI50 (SK-MEL-28): > 100 µM (inactive)
- GI50 (HCC 2998): 24.3 µM (inactive)
- GI50 (DMS-114): 11.4 µM (inactive)
- GI50 (U-251): > 100 µM (inactive)
- GI50 (COLO 205): 41.2 µM (inactive)
- GI50 (NCI-H23): 18.2 µM (inactive)
- GI50 (SR): > 100 µM (inactive)
- GI50 (SF-268): 34.7 µM (inactive)
- GI50 (XF498): > 100 µM (inactive)
- GI50 (SK-MEL-5): > 100 µM (inactive)
- GI50 (SNB-75): 65.2 µM (inactive)
- GI50 (SNB-78): > 100 µM (inactive)
- GI50 (UO-31): 42.1 µM (inactive)
- GI50 (HOP-62): 35.1 µM (inactive)
- GI50 (EKVX): > 100 µM (inactive)
- GI50 (HCT-116): 20.5 µM (inactive)
- GI50 (M14): 33 µM (inactive)
- GI50 (SK-MEL-2): 58.7 µM (inactive)
- GI50 (M19-MEL): > 100 µM (inactive)
- GI50 (HL-60): 36 µM (inactive)
- GI50 (IGROV-1): > 100 µM (inactive)
- GI50 (NCI-H226): > 100 µM (inactive)
- GI50 (ACHN): 20.1 µM (inactive)
- GI50 (HOP-18): > 100 µM (inactive)
- GI50 (HOP-92): 9.2 µM (inactive)
- GI50 (OVCAR-5): 60.5 µM (inactive)
- GI50 (HCT-15): 7.94 µM
- GI50 (CAKI-1): 17.7 µM (inactive)
- GI50 (RPMI-8226): 32.5 µM (inactive)
- GI50 (UACC-257): > 100 µM (inactive)
- GI50 (KM-20L2): 55.7 µM (inactive)
- GI50 (OVCAR-3): 11.4 µM (inactive)
- GI50 (A549): > 100 µM (inactive)
- GI50 (HT-29): 32.6 µM (inactive)
- GI50 (TK-10): 68.7 µM (inactive)
- GI50 (MOLT-4): 3.58 µM (inactive)
- GI50 (SN12C): 6.31 µM (inactive)
- GI50 (OVCAR-8): 3.85 µM (inactive)
- GI50 (CCRF-CEM): > 100 µM (inactive)
- GI50 (K562): 5.35 µM (inactive)
- GI50 (SF-295): 87.5 µM (inactive)
- GI50 (A498): 58.2 µM (inactive)
- GI50 (UACC-62): > 100 µM (inactive)
- GI50 (DLD-1): 2.75 µM (inactive)
- GI50 (KM12): > 100 µM (inactive)
- GI50 (786-0): 79.4 µM (inactive)
- GI50 (SNB-19): > 100 µM (inactive)
- GI50 (DMS-273): 11.7 µM (inactive)
- GI50 (LOX IMVI): 4.72 µM (inactive)
- GI50 (NCI-H522): 11.9 µM (inactive)
- GI50 (SW-620): 14.4 µM (inactive)
- GI50 (SF-539): 37.5 µM (inactive)
- GI50 (NCI-H460): 38.9 µM (inactive)

Compound: CCOC(=O)C(C)N1C(=O)c2ccccc2S1(=O)=O (configuration not stated)
- GI50 (Malme-3M): > 100 µM (inactive)
- GI50 (SK-OV-3): > 100 µM (inactive)
- GI50 (OVCAR-4): > 100 µM (inactive)
- GI50 (SK-MEL-28): > 100 µM (inactive)
- GI50 (HCC 2998): > 100 µM (inactive)
- GI50 (DMS-114): > 100 µM (inactive)
- GI50 (U-251): > 100 µM (inactive)
- GI50 (COLO 205): > 100 µM (inactive)
- GI50 (NCI-H23): > 100 µM (inactive)
- GI50 (SF-268): > 100 µM (inactive)
- GI50 (XF498): > 100 µM (inactive)
- GI50 (SK-MEL-5): > 100 µM (inactive)
- GI50 (SNB-75): > 100 µM (inactive)
- GI50 (UO-31): > 100 µM (inactive)
- GI50 (HOP-62): > 100 µM (inactive)
- GI50 (EKVX): > 100 µM (inactive)
- GI50 (HCT-116): > 100 µM (inactive)
- GI50 (SK-MEL-2): > 100 µM (inactive)
- GI50 (M19-MEL): > 100 µM (inactive)
- GI50 (HL-60): > 100 µM (inactive)
- GI50 (MCF7): > 100 µM (inactive)
- GI50 (IGROV-1): > 100 µM (inactive)
- GI50 (NCI-H226): > 100 µM (inactive)
- GI50 (HOP-18): > 100 µM (inactive)
- GI50 (HOP-92): > 100 µM (inactive)
- GI50 (OVCAR-5): > 100 µM (inactive)
- GI50 (HCT-15): > 100 µM
- GI50 (CAKI-1): > 100 µM (inactive)
- GI50 (RPMI-8226): > 100 µM (inactive)
- GI50 (UACC-257): > 100 µM (inactive)
- GI50 (OVCAR-3): > 100 µM (inactive)
- GI50 (A549): > 100 µM (inactive)
- GI50 (HT-29): > 100 µM (inactive)
- GI50 (MOLT-4): > 100 µM (inactive)
- GI50 (NCI/ADR-RES): > 100 µM (inactive)
- GI50 (SN12C): > 100 µM (inactive)
- GI50 (OVCAR-8): > 100 µM (inactive)
- GI50 (CCRF-CEM): > 100 µM (inactive)
- GI50 (K562): > 100 µM (inactive)
- GI50 (SF-295): > 100 µM (inactive)
- GI50 (A498): > 100 µM (inactive)
- GI50 (UACC-62): > 100 µM (inactive)
- GI50 (DLD-1): > 100 µM (inactive)
- GI50 (KM12): > 100 µM (inactive)
- GI50 (SNB-19): > 100 µM (inactive)
- GI50 (DMS-273): > 100 µM (inactive)
- GI50 (LOX IMVI): > 100 µM (inactive)
- GI50 (NCI-H522): > 100 µM (inactive)
- GI50 (SW-620): > 100 µM (inactive)
- GI50 (SF-539): > 100 µM (inactive)
- GI50 (NCI-H460): > 100 µM (inactive)
